“And” between values parts separate entries of the source, which are not always exact repeats. Equal values may be shown once.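 In this assay, cells in 96-well plates receive the compound at five concentrations for 48 hours. Endpoints are linearly interpolated between the surrounding concentrations. At the GI50, growth is halved. TGI is the concentration that stops growth completely.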
Key:
Test in all cases: NCI tumour cell line growth inhibition, 48 h
786-0 renal = tested on: 786-0 renal
SNB-75 CNS = tested on: SNB-75 CNS
HCT-116 colon = tested on: HCT-116 colon
HOP-92 NSCLC = tested on: HOP-92 NSCLC
RXF 393 renal = tested on: RXF 393 renal
U251 CNS = tested on: U251 CNS
MCF7 breast = tested on: MCF7 breast
NCI-H522 lung = tested on: NCI-H522 lung
NCI/ADR-RES ovarian = tested on: NCI/ADR-RES ovarian
MDA-MB-435 = tested on: MDA-MB-435

COc1ccc(C[C@]23CCC(=O)N2CCc2cc(OC)c(O)cc23)cc1O
TGI (786-0 renal): > 100 µM | TGI (SNB-75 CNS): > 100 µM | TGI (HCT-116 colon): > 100 µM | TGI (HOP-92 NSCLC): > 100 µM | TGI (RXF 393 renal): > 100 µM

COc1ccccc1NC(=O)C1=C(C)NC(C)=C(C(=O)Nc2ccccc2OC)C1c1ccccc1Cl
TGI (786-0 renal): > 100 µM | TGI (SNB-75 CNS): > 100 µM | TGI (HCT-116 colon): > 100 µM | TGI (HOP-92 NSCLC): > 100 µM | TGI (U251 CNS): > 100 µM

O=C(O)CCSC(=O)Nc1cccc2ccccc12
TGI (786-0 renal): > 100 µM | TGI (SNB-75 CNS): > 100 µM | TGI (HCT-116 colon): > 100 µM | TGI (HOP-92 NSCLC): > 100 µM | TGI (U251 CNS): > 100 µM | TGI (RXF 393 renal): > 100 µM

CC[O-].CC[O-].O=C([CH-]C(=O)c1ccccc1)CCCCCCC(=O)[CH-]C(=O)c1ccccc1.[Ti+4]
GI50 (786-0 renal): > 100 µM | TGI (786-0 renal): > 100 µM | GI50 (SNB-75 CNS): > 100 µM | TGI (SNB-75 CNS): > 100 µM | GI50 (HOP-92 NSCLC): > 100 µM | TGI (HOP-92 NSCLC): > 100 µM | GI50 (U251 CNS): > 100 µM | TGI (U251 CNS): > 100 µM | GI50 (RXF 393 renal): > 100 µM | TGI (RXF 393 renal): > 100 µM

C#CCOC(=O)/C=C/C(=O)Oc1ccc2c(C)cc(=O)oc2c1
GI50 (786-0 renal): > 100 µM | TGI (786-0 renal): > 100 µM | GI50 (SNB-75 CNS): > 100 µM | TGI (SNB-75 CNS): > 100 µM | GI50 (MCF7 breast): > 100 µM | TGI (MCF7 breast): > 100 µM | GI50 (NCI-H522 lung): > 100 µM | TGI (NCI-H522 lung): > 100 µM | GI50 (HCT-116 colon): > 100 µM | TGI (HCT-116 colon): > 100 µM | GI50 (NCI/ADR-RES ovarian): > 100 µM | TGI (NCI/ADR-RES ovarian): > 100 µM | GI50 (U251 CNS): > 100 µM | TGI (U251 CNS): > 100 µM | GI50 (MDA-MB-435): > 100 µM | TGI (MDA-MB-435): > 100 µM | GI50 (RXF 393 renal): > 100 µM | TGI (RXF 393 renal): > 100 µM

CN=C1CN=C(OP(=O)(N2CCOCC2)N2CCOCC2)c2cc(Cl)ccc2N1
TGI (786-0 renal): > 100 µM | TGI (SNB-75 CNS): > 100 µM | TGI (NCI-H522 lung): > 100 µM | TGI (HCT-116 colon): > 100 µM | TGI (U251 CNS): > 100 µM | TGI (RXF 393 renal): > 100 µM

COc1ccc(-c2oc3c(OC)c(OC)c(OC)c(O)c3c(=O)c2OC)cc1O
GI50 (786-0 renal): < 0.01 µM | TGI (786-0 renal): 11.3 µM | GI50 (SNB-75 CNS): < 0.01 µM | TGI (SNB-75 CNS): < 0.01 µM | TGI (NCI-H522 lung): < 0.01 µM | GI50 (U251 CNS): < 0.01 µM | TGI (U251 CNS): 0.898 µM and 0.23 µM | TGI (RXF 393 renal): 0.504 µM

Cc1ccc(/C=N/NS(=O)(=O)c2ccccc2)cc1C
TGI (786-0 renal): > 100 µM | TGI (SNB-75 CNS): > 100 µM | TGI (HCT-116 colon): > 100 µM | TGI (HOP-92 NSCLC): > 100 µM | TGI (U251 CNS): > 100 µM | TGI (RXF 393 renal): > 100 µM

CC(=O)[CH-]C(C)=O.CC(=O)[CH-]C(C)=O.[Cl-].[O]=[V]
GI50 (786-0 renal): 20 µM | TGI (786-0 renal): 42.9 µM | GI50 (SNB-75 CNS): 8.51 µM | TGI (SNB-75 CNS): 25.2 µM | GI50 (NCI-H522 lung): > 100 µM | TGI (NCI-H522 lung): > 100 µM | GI50 (HCT-116 colon): 19.1 µM | TGI (HCT-116 colon): 48.3 µM | GI50 (U251 CNS): 22.5 µM | TGI (U251 CNS): 59 µM | GI50 (RXF 393 renal): 10.9 µM | TGI (RXF 393 renal): 24.6 µM

COc1cccc(C=O)c1[O-].COc1cccc(C=O)c1[O-].[Zn+2]
TGI (786-0 renal): > 100 µM | TGI (SNB-75 CNS): > 100 µM | TGI (NCI-H522 lung): > 100 µM | TGI (HCT-116 colon): > 100 µM | TGI (HOP-92 NSCLC): 83.6 µM | TGI (U251 CNS): > 100 µM | TGI (RXF 393 renal): > 100 µM

CC(=O)OC1=C2CC[C@@H]3C(CC[C@@]4(C)C3CC[C@@H]4OC(C)=O)[C@@]2(C)CC(C#N)C1=O (stereo partly drawn)
TGI (786-0 renal): > 100 µM | TGI (SNB-75 CNS): 72.9 µM | TGI (HCT-116 colon): > 100 µM | TGI (HOP-92 NSCLC): 54.9 µM | TGI (U251 CNS): 90.5 µM | TGI (RXF 393 renal): > 100 µM

C=CCOc1ccc(N)c([N+](=O)[O-])c1
TGI (786-0 renal): > 100 µM | TGI (SNB-75 CNS): > 100 µM | TGI (MCF7 breast): > 100 µM | TGI (NCI-H522 lung): > 100 µM | TGI (HCT-116 colon): > 100 µM | TGI (NCI/ADR-RES ovarian): > 100 µM | TGI (U251 CNS): > 100 µM | TGI (MDA-MB-435): > 100 µM | TGI (RXF 393 renal): > 100 µM

CS(=O)(=O)NNS(=O)(=O)c1ccc(F)cc1
TGI (786-0 renal): > 100 µM | TGI (SNB-75 CNS): > 100 µM | TGI (NCI-H522 lung): > 100 µM | TGI (HCT-116 colon): > 100 µM | TGI (U251 CNS): > 100 µM | TGI (RXF 393 renal): > 100 µM

Cc1nc2ccccc2c(/C=C/c2ccccc2)c1C(=O)/C=C/c1ccc(C(F)(F)F)cc1
GI50 (786-0 renal): 1.22 µM | TGI (786-0 renal): 2.71 µM | GI50 (SNB-75 CNS): 1.44 µM | TGI (SNB-75 CNS): 2.82 µM | GI50 (MCF7 breast): 0.631 µM | TGI (MCF7 breast): 2.66 µM | GI50 (NCI-H522 lung): 1.6 µM | TGI (NCI-H522 lung): 6.32 µM | GI50 (HCT-116 colon): 0.226 µM | TGI (HCT-116 colon): 1.16 µM | GI50 (NCI/ADR-RES ovarian): 2.19 µM | TGI (NCI/ADR-RES ovarian): 7.19 µM | GI50 (U251 CNS): 1.4 µM | TGI (U251 CNS): 2.95 µM | GI50 (MDA-MB-435): 1.86 µM | TGI (MDA-MB-435): 3.55 µM | GI50 (RXF 393 renal): 1.41 µM | TGI (RXF 393 renal): 3.1 µM

CCOC(=O)CNC(=O)OCc1ccccc1
TGI (786-0 renal): > 100 µM | TGI (SNB-75 CNS): > 100 µM | TGI (NCI-H522 lung): > 100 µM | TGI (HCT-116 colon): > 100 µM | TGI (HOP-92 NSCLC): > 100 µM | TGI (U251 CNS): > 100 µM

CO/C=C(\Br)c1ccc2c(c1)OCO2
TGI (786-0 renal): > 100 µM | TGI (SNB-75 CNS): > 100 µM | TGI (NCI-H522 lung): > 100 µM | TGI (HCT-116 colon): > 100 µM | TGI (HOP-92 NSCLC): > 100 µM | TGI (U251 CNS): > 100 µM | TGI (RXF 393 renal): > 100 µM

COc1ccc2nc3c(cc2c1)C(=O)CC(c1ccccc1)C3 (stereo not drawn)
GI50 (786-0 renal): 2.23 µM | TGI (786-0 renal): > 100 µM | GI50 (SNB-75 CNS): 0.181 µM | TGI (SNB-75 CNS): > 100 µM | GI50 (MCF7 breast): 3.54 µM | TGI (MCF7 breast): > 100 µM | GI50 (NCI-H522 lung): 0.401 µM | TGI (NCI-H522 lung): > 67.4 µM | GI50 (HCT-116 colon): 0.383 µM | TGI (HCT-116 colon): > 100 µM | TGI (HOP-92 NSCLC): > 100 µM | GI50 (NCI/ADR-RES ovarian): 0.359 µM | TGI (NCI/ADR-RES ovarian): > 100 µM | GI50 (U251 CNS): 5.81 µM | TGI (U251 CNS): > 100 µM | GI50 (MDA-MB-435): 0.137 µM | TGI (MDA-MB-435): 0.38 µM

O=C(CC1(O)C(=O)Nc2ccccc21)c1ccc(Cl)cc1Cl (stereo not drawn)
TGI (786-0 renal): > 100 µM | TGI (SNB-75 CNS): > 100 µM | TGI (NCI-H522 lung): > 100 µM | TGI (HCT-116 colon): > 100 µM | TGI (HOP-92 NSCLC): > 100 µM | TGI (RXF 393 renal): > 100 µM

Reference: PubChem BioAssay (NCI)
